Data as given in PMC7409197, “Adenosine Receptors as Neuroinflammation Modulators: Role of A1 Agonists and A2A Antagonists” (Cells, 2020).

How the values were obtained:
neuronal cells = assay: Cell viability in primary neuronal cells with or without CK and AR antagonists; assay type: cell-based, rat; conditions: for protection of neurons against neuroinflammatory insult (cell viability): 30 min, with CK
Method: Neurons were obtained from hippocampus or cortex of embryos. Briefly, pregnant rat was scarified and the uterus removed. Embryos were taken out from the uterus and brains were obtained. After removing the meninges, hippocampus and cortex were dissected and homogenated with tweezers. The result was incubated with trypsin for 15 min at 37 °C and then centrifuged 2 min at 1000 rpm. The pellet was resuspended with 15 mL of HBSS/0.37% Glucose/30% FBS and centrifuged as before for three times. Finally, the pellet was resuspended with 15 mL of neurobasal media supplemented with 25 µM of glutamine. The result was filtered and plated. Cells were plated in 24 well plates at 10^5 cells/well [26].
1.7 × 10^4 mixed glial cells were cultured in 98 μL of the specific medium in a 96 well plate overnight. The next day 2 μL of ligand or CK cocktail were added to the well. After all treatments, 20 µL of CellTiter 96® AQueous One Solution Reagent was added in a final volume of 100 µL. Absorbance was read at 490 nm using the plate reader GENiosPro. Cell viability was calculated as percentage using the following formula: Cell viability =OD mean of treated cells/OD mean of control cells × 100

human A1AR = molecular target: human A1AR; design: method as in PMID 30614535; conditions: CHO cells stably transfected with human ARs; read-out: KiA1AR; cited from earlier work
human A2AAR = molecular target: human A2AAR; design: method as in PMID 30614535; conditions: CHO cells stably transfected with human ARs; read-out: KiA2AAR; cited from earlier work
human A3AR = molecular target: human A3AR; design: method as in PMID 30614535; conditions: CHO cells stably transfected with human ARs; read-out: KiA3AR; cited from earlier work
hA1AR = tested on: hA1AR; design: method as in PMID 30614535; conditions: inhibition of adenyl cyclase activity induced by forskolin, cited from earlier work
[1] = tested on: mouse ileum contractility; design: method as in PMID 30614535; conditions: ex vivo mouse ileum; cited from earlier work
SH-SY5Y cells = tested on: SH-SY5Y cells; design: method as in PMID 30614535; conditions: different concentrations; cited from earlier work
A2AAR [2] = molecular target: T1, A2AAR (Homo sapiens, UniProt P29274); assay: A2AAR affinity (Ki), method not described; assay type: binding; conditions: unpublished results of the authors; read-out: KiA2AAR
A1AR = molecular target: T2, A1AR (Homo sapiens, UniProt P30542); assay: A1AR affinity (Ki), method not described; assay type: binding; conditions: unpublished results of the authors; read-out: KiA1AR
T2 sequence (P30542 1-326): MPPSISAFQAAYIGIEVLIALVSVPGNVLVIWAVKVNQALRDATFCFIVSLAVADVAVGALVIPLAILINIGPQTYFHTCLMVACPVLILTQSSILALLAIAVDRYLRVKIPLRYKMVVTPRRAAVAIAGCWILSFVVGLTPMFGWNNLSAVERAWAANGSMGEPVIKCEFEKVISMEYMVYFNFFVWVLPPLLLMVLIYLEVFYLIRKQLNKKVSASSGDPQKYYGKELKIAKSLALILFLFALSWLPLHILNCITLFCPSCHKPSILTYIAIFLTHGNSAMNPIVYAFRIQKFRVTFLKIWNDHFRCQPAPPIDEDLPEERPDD

A3AR = molecular target: T3, A3AR (Homo sapiens, UniProt P0DMS8); assay: A3AR affinity (Ki), method not described; assay type: binding; conditions: unpublished results of the authors; read-out: KiA3AR
T3 sequence (P0DMS8 1-318): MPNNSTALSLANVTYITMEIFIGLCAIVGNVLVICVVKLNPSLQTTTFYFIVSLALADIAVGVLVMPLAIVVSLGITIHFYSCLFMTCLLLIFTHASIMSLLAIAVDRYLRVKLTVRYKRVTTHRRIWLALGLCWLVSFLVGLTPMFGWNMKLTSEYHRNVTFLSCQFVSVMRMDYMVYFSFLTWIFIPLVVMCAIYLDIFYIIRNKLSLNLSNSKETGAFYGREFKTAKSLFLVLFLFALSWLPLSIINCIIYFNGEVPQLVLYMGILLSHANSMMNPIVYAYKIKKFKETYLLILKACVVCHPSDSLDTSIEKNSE

A2AAR [3] = molecular target: T1, A2AAR; assay: A2AAR functional antagonism (IC50), method not described; assay type: biochemical; conditions: unpublished results of the authors; read-out: IC50A2AAR
mixed glial cells = assay: Trypan blue exclusion test in mixed glial cells; assay type: cell-based, rat; conditions: 30 min
Method: 6 × 10^5 mixed glial cells were seeded in a six well plate and after 24 h incubated with C2 10 nM alone or in presence of CK cocktail. After 30 min at 37 °C cells were detached with Trypsin-EDTA solution and 10 µL of cells were added to 40 μL of 0.4% trypan blue solution. Cells were counted with a Neubauer chamber and the number of live cells was calculated.

T1 sequence (P29274 whole entry): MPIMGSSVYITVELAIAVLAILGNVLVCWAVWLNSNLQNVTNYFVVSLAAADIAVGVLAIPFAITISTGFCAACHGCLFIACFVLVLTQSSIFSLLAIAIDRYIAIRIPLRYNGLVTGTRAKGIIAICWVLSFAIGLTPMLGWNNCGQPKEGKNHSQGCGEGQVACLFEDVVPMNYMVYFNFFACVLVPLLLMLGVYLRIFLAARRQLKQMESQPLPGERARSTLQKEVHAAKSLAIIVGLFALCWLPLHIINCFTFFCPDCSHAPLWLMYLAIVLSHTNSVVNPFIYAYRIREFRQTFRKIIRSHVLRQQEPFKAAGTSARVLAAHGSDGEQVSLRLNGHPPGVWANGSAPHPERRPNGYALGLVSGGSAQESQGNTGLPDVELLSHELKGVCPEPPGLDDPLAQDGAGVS

Ki (A2AAR [2]) [nM]	Ki (A1AR) [nM]	Ki (A3AR) [nM]	IC50 (A2AAR [3]) [nM]	Compound	protection of neurons against neuroinflammatory insult (cell viability) (neuronal cells; C1 5.5 µM, C2 10 nM)	cell viability, effect against A1AR antagonist DPCPX (neuronal cells; neurons, C1 5.5 µM, DPCPX 100 nM, in presence of CK)	Ki (human A1AR) [nM]	Ki (human A2AAR) [nM]	Ki (human A3AR) [nM]	α (intrinsic activity, partial agonist) (hA1AR)	EC50 (hA1AR; read-out: EC50A1AR) [nM]	maximal reduction of contractility relative to full agonist CCPA [1] [%]	protection from oxygen-glucose deprivation (OGD) (SH-SY5Y cells)	cell viability, combination with A2AAR antagonist SCH58261 (neuronal cells; neurons, C2 10 nM, SCH58261 50 nM)	live cells vs. control (trypan blue) (mixed glial cells; 10 nM alone)	number of cells vs. control (trypan blue) (mixed glial cells; 10 nM, after aggression with CK cocktail)
–	–	–	–	OC[C@H]1O[C@@H](n2cnc3c(NC4CCCC4)nc(Cl)nc32)C[C@@H]1O [Compound C1, 2-chloro-N^6-cyclopentyl-2′-deoxyadenosine]	beneficial effects in protecting neurons	partially counteract the effect of DPCPX	550	24800	5560	0.70	832	75	protect SH-SY5Y cells from oxygen-glucose deprivation (OGD)	–	–	–
0.75	17	227	251	CCn1c(Cl)nc2c(N)nc(OCCc3ccccc3)nc21 [Compound C2, 8-chloro-9-ethyl-2-phenethoxyadenine]	beneficial effects in protecting neurons	–	–	–	–	–	–	–	–	did not exhibited a synergic effect	123 ± 4.5	129 ± 3.5
